Source: US6756206B2, “Adsorption and removal of endotoxin from physiological fluids using cationic helix peptides” (Commonwealth Biotechnologies, Inc., priority 1998, dated 2004)
Where two headings read alike, the source gives them in different places. No end group written: not given here.

Experiments:
[1] = Neutralization of endotoxin purposely added to plasma or buffer, kinetic chromogenic Limulus amebocyte lysate endotoxin assay; type: biochemical; settings: for neutralization (binding) of endotoxin, in words: endotoxin added to plasma or aqueous samples; for Percent binding of Endotoxin: plasma, endotoxin 10 ng/mL
Procedure: The presence of endotoxin may routinely be measured using, for example, a kinetic chromogenic method. The assay involves a complete set of enzyme reactions which are described in detail in the following publications, each of which is hereby incorporated by reference.
In the course of the endotoxin assay, a calibration curve is prepared which is a plot of logarithm of the time of the kinetic endpoint of a chromogenic reaction versus the logarithm of known concentrations of endotoxin.
Thus, if endotoxin is added to aqueous buffer solutions or to plasma the amount of endotoxin present can be assayed by reference to the calibration curve. Similarly, if plasma, plasma fractions, patient samples or any test solution contains an endogenous level of endotoxin, the level can also be determined by reference to the calibration curve.
Endotoxin was purposely added to plasma to a final concentration of 10 ng/mL and increasing concentrations of the compounds Arg Helix #2 (a monomeric cationic helix peptide), Bis Arg Helix #2 (which contains 2 copies of Arg Helix #2), Tris Arg Helix #3 (which contains 3 copies of Arg Helix #3), Tetra Arg Helix #3 (4 copies of Arg Helix #3) or Tris Arg Helix #3 (constrained) (3 copies of Arg Helix #3 constrained by design to present a “binding groove” within the molecule) were added to these same samples (Table 1).

[2] = cited from earlier work

Molecule	neutralization (binding) of endotoxin, in words [1]	Percent binding of Endotoxin ([1]; peptide concentration 0.01 mg/mL) [%]	Percent binding of Endotoxin ([1]; peptide concentration 0.1 mg/mL) [%]	Percent binding of Endotoxin ([1]; peptide concentration 0.5 mg/mL) [%]	Percent binding of Endotoxin ([1]; peptide concentration 1.0 mg/mL) [%]	Survival ([2]; animals treated with cefoxitin and rHBP, compared to controls)	Survival ([2]; mice pretreated well in advance)	Survival ([2]; treated at the time of ligation and puncture, versus control group)
Bis Arg Helix #2: contains 2 copies of Arg Helix #2; SEQ ID NOS.:2 and 3, FIG. 1A (chain 1 ARAARRAARAAARRARAEA; chain 2 AEARARRAAARAARRAARA; also: two copies linked, linkage not given here)	very little neutralization (binding) activity	0.00	24.7	51.2	63.5			
protamine [reference compound]	ineffective in neutralizing endotoxin							
rHBP: recombinant heparin binding protein; formerly known as cationic antimicrobial protein or bactericidal/permeability increasing factor (protein, UniProt P20160 27-248, looked up) Azurocidin: IVGGRKARPRQFPFLASIQNQGRHFCGGALIHARFVMTAASCFQSQNPGVSTVVLGAYDLRRRERQSRQTFSISSMSENGYDPQQNLNDLMLLQLDREANLTSSVTILPLPLQNATVEAGTRCQVAGWGSQRSGGRLSRFPRFVNVTVTPEDQCRPNNVCTGVLTRRGGICNGDGGTPLVCEGLAHGVASFSLGPCGRGPDFFTRVALFRDWIDGVLNNPGP						increased significantly	increased	not significantly different
